Literature values as cited in US20080200510A1, “Combination of Organic Compounds” (priority 2005, published 2008).

Tests used:
[1] = system: diet-induced obesity; settings: preclinical studies; by decreasing body weight, food intake, regulating circulating lipids and energy balance
[2] = not given; remark: listed apart in the source

For `N#C[C@@H]1CCCN1C(=O)CNC12CC3CC(CC(O)(C3)C1)C2` [Vildagliptin, (S)-1-[(3-hydroxy-1-adamantyl)amino]acetyl-2-cyano-pyrrolidine], the glycemia (agent alone, by preserving the incretin effects) is listed as “improves glycemia”.

In the case of `Cc1c(C(=O)NN2CCCCC2)nn(-c2ccc(Cl)cc2Cl)c1-c1ccc(Cl)cc1` [rimonabant, N-piperidino-5-(4-chlorophenyl)-1-(2,4-dichlorophenyl)-4-methylpyrazole-3-carboxamide], the “reversal of diet-induced obesity” value [1] is given as “effective in reversing diet-induced obesity”, the “body weight reduction in clinic” value [2] is given as “highly effective to produce body weight reduction” and the body weight (agent by itself) is given as “reduction in body weight”. For the same compound, the food intake (agent by itself) was “decrease in food intake”.
